We go through three molecules from patent US7799800B2, “Lipid-modified immune response modifiers” (3M Innovative Properties Company, priority 2003, dated 2010).

Molecules are shown by their SMILES.

For orientation: melting point means the temperature of the solid-liquid transition. With `CCCCCCCCCCCCCCCCCC(=O)NCCOCCn1c(CCOC)nc2c(N)nc3ccccc3c21` [Example 2, N-(2-{2-[4-amino-2-(2-methoxyethyl)-1H-imidazo[4,5-c]quinolin-1-yl]ethoxy}ethyl)octadecanamide], the melting point lay in the range of 80 to 83 °C.

Take `CCCCCCCCCCCC(=O)NCCOCCn1c(CCOC)nc2c(N)nc3ccccc3c21` [Example 3, N-(2-{2-[4-amino-2-(2-methoxyethyl)-1H-imidazo[4,5-c]quinolin-1-yl]ethoxy}ethyl)dodecanamide]: the melting point lay in the range of 80 to 83 °C.

The molecule `CCCCCCCCCCCCCC(=O)NCCOCCn1c(CCOC)nc2c(N)nc3ccccc3c21` [Example 4, N-(2-{2-[4-amino-2-(2-methoxyethyl)-1H-imidazo[4,5-c]quinolin-1-yl]ethoxy}ethyl)tetradecanamide] registered a melting point of 85 to 87 °C.
